Assay [1] has as its target T1, SIRT1 (Homo sapiens, UniProt Q96EB6).
T1 sequence (Q96EB6 2-747): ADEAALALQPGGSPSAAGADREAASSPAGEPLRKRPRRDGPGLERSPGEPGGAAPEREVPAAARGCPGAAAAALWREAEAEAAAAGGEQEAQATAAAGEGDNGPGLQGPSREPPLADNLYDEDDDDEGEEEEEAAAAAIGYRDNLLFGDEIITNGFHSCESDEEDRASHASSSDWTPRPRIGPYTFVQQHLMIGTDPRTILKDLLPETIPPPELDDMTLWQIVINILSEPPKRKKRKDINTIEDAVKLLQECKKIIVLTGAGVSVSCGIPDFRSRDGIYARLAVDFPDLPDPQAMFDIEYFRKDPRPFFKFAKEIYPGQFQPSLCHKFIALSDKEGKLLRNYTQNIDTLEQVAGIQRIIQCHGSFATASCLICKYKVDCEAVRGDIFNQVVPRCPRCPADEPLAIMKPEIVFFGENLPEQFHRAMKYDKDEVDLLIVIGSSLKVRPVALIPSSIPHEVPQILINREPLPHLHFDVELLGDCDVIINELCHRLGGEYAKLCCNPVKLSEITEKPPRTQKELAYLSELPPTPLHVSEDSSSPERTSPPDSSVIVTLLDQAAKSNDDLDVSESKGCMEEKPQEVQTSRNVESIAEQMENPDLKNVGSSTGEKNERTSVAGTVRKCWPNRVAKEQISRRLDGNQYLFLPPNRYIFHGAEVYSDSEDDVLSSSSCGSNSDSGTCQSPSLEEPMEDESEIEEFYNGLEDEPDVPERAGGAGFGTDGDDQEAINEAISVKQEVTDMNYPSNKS
The assay is described as follows: fluorescence-based deacetylase assay kit, human recombinant enzyme. The assay is classed as biochemical. To be noted: read-out: Inhibition (%±SD) / SIRT1 / 100 μM / 50 μM.

For assay [2], the target named is T2, SIRT2 (Homo sapiens, UniProt Q8IXJ6). Described as above. The assay is classed as biochemical.
Assay [3] addresses T3, SIRT2 (Homo sapiens, UniProt Q8IXJ6).
T3 sequence (Q8IXJ6 2-389): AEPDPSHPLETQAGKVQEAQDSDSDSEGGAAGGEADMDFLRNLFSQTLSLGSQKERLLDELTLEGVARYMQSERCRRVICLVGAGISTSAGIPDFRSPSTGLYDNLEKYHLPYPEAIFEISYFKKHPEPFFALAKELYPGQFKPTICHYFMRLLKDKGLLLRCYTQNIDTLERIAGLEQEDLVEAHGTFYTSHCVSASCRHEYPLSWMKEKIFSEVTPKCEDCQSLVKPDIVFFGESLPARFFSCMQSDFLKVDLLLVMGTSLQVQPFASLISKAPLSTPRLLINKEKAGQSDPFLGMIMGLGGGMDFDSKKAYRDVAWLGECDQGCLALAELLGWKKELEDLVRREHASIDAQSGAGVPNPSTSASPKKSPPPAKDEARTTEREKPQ
The assay is described as follows: biochemical. To be noted: for inhibition at 50 µM: read-out: Inhibition (%±SD) / SIRT2 / 50 μM.

Assay [4] concerns the target T1, SIRT1. The assay is described as follows: biochemical. To be noted: for inhibition at 100 µM: read-out: Inhibition (%±SD) / SIRT1 / 100 μM.
For assay [5], the target named is T4, SIRT3 (Homo sapiens, UniProt Q9NTG7).
T4 sequence (Q9NTG7 102-399): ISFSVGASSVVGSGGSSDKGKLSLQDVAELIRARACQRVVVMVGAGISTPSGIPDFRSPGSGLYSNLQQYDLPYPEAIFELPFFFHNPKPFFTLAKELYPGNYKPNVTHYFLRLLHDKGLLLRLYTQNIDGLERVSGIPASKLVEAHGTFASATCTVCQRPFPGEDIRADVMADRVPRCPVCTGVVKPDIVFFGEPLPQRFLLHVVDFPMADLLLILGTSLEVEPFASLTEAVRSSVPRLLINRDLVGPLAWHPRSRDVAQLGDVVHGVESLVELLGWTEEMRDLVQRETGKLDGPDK
The assay is described as follows: biochemical. The conditions noted are these: for inhibition at 100 µM: read-out: Inhibition (%±SD) / SIRT3 / 100 μM; for inhibition at 50 µM: read-out: Inhibition (%±SD) / SIRT3 / 50 μM.

For assay [6], the target named is T2, SIRT2. The assay is described as follows: fluorescence-based deacetylase assay kit, human recombinant enzyme. The assay is classed as biochemical. To be noted: read-out: Inhibition (%±SD) / SIRT2 / 50 μM / SIRT1 / 100 μM.
Assay [7] addresses T4, SIRT3. Described as above. It is filed as biochemical. The conditions noted are these: read-out: Inhibition (%±SD) / SIRT3 / 50 μM.
[8] abbreviates: read-out: Inhibition (%±SD) / SIRT2 / 100 μM.

Where two headings read alike, the source gives them in different places.

In the case of `NC(=O)C1CCCc2c1[nH]c1ccc(Cl)cc21` (racemic) [EX‐527], in assay [1], the inhibition at 50 µM was 90.2%.
`O=C(Nc1ccc2c(c1)C(=O)c1cc(NC(=O)Nc3nccs3)ccc1-2)Nc1nccs1` [SG1, 1,1′‐(9‐Oxo‐9H‐fluorene‐2,7‐diyl)bis[3‐(thiazol‐2‐yl)urea]]: the IC50 (commonly the point on the concentration scale where inhibition reaches its midpoint) in assay [2] came out at 9.67 µM. Moreover, in assay [3], the inhibition at 50 µM amounted to 72.4 ± 2.88%. Also, the inhibition at 100 µM in assay [3] (setting [8]) is 106 ± 4.22%; in assay [4] it was 22.5 ± 3.74%; in assay [5] it was 44.7 ± 2.08%.
On to `Cn1ccc(NC(=O)Nc2ccc3c(c2)C(=O)c2cc(NC(=O)Nc4ccn(C)n4)ccc2-3)n1` [SG2], for which, in assay [3], the inhibition at 50 µM is 21.6 ± 4.19%. Moreover, the inhibition at 100 µM was found to be 48.5 ± 0.3% in assay [3] (setting [8]), 11.3 ± 1.83% in assay [4] and 17.5 ± 0.57% in assay [5].
Turning to `O=C(Nc1ccc2c(c1)C(=O)c1cc(NC(=O)Nc3ccon3)ccc1-2)Nc1ccon1` [SG3, 1,1′‐(9‐Oxo‐9H‐fluorene‐2,7‐diyl)bis[3‐(isoxazol‐3‐yl)urea]], the IC50 in assay [2] came out at 1.95 µM. In addition, the inhibition at 50 µM in assay [3] was found to be 77.8 ± 1.7%. Also, the inhibition at 100 µM is 84.4 ± 4.07% in assay [3] (setting [8]) and 18.6 ± 1.54% in assay [5].
`O=C(Nc1ccc2c(c1)C(=O)c1cc(NC(=O)Nc3ccccn3)ccc1-2)Nc1ccccn1` [SG4, 1,1′‐(9‐oxo‐9H‐fluorene‐2,7‐diyl)bis[3‐(pyridin‐2‐yl)urea]]: the IC50 in assay [2] was determined as 6.65 µM. Besides, in assay [3], the inhibition at 50 µM came out at 67.6 ± 3.95%. Also, the inhibition at 100 µM in assay [3] (setting [8]) was 101 ± 7.54%; in assay [4] it was 24.7 ± 5.02%; in assay [5], 42.5 ± 4.88%.
As for `O=C(COc1ccc2c(c1)C(=O)c1cc(OCC(=O)Nc3nccs3)ccc1-2)Nc1nccs1` [SG5, 2,2′‐[(9‐Oxo‐9H‐fluorene‐2,7‐diyl)bis(oxy)]bis[N‐(thiazol‐2‐yl)acetamide]], the inhibition at 50 µM in assay [6] came to 62.4%; in assay [4] (read-out: Inhibition (%±SD) / SIRT1 / 50 μM), 53.2 ± 1.62%; in assay [5], 51.7 ± 1.56%. Further, the inhibition at 100 µM in assay [3] (setting [8]) stood at 102 ± 8.24%; in assay [4], 71.2 ± 5.29%; in assay [5], 55.6 ± 4.42%.
`Cn1ccc(NC(=O)COc2ccc3c(c2)C(=O)c2cc(OCC(=O)Nc4ccn(C)n4)ccc2-3)n1` [SG6]: the inhibition at 50 µM in assay [3] stood at 64 ± 3.84%; in assay [5] it was 20.5 ± 7.34%. The inhibition at 100 µM in assay [3] (setting [8]) was determined as 65.6 ± 3.34%; in assay [4], 27.8 ± 1.31%; in assay [5] it was 36.8 ± 2.26%.
Regarding `O=C(COc1ccc2c(c1)C(=O)c1cc(OCC(=O)Nc3ccon3)ccc1-2)Nc1ccon1` [SG7], the inhibition at 100 µM in assay [3] (setting [8]) worked out at 21.5 ± 2.37%.
With `O=C(COc1ccc2c(c1)C(=O)c1cc(OCC(=O)Nc3ccccn3)ccc1-2)Nc1ccccn1` [SG8, 2,2′‐[(9‐Oxo‐9H‐fluorene‐2,7‐diyl)bis(oxy)]bis[N‐(pyridin‐2‐yl)acetamide]], the inhibition at 50 µM in assay [6] was determined as 99.8%; in assay [7], 76.4%. The inhibition at 100 µM in assay [3] (setting [8]) is 103 ± 2.61%; in assay [4] it was 13.2 ± 2.22%; in assay [5], 83.07 ± 0.27%.
For `O=C(CSc1ccccc1)Nc1ccc2c(c1)C(=O)c1cc(NC(=O)CSc3ccccc3)ccc1-2` [SG9, N,N′‐(9‐Oxo‐9H‐fluorene‐2,7‐diyl)bis[2‐(phenylthio)acetamide]], the inhibition at 50 µM in assay [7] turned out to be 85%; in assay [3] it was 51 ± 2.28%. For the same compound, the inhibition at 100 µM was determined as 71.4 ± 6.51% in assay [3] (setting [8]) and 90 ± 3.41% in assay [5].
Turning to `Cn1ccnc1SCC(=O)Nc1ccc2c(c1)C(=O)c1cc(NC(=O)CSc3nccn3C)ccc1-2` [SG10], in assay [3] (setting [8]), the inhibition at 100 µM turned out to be 18.1 ± 1.88%.
Still for that read-out and setting: for `Cc1cc(C)nc(SCC(=O)Nc2ccc3c(c2)C(=O)c2cc(NC(=O)CSc4nc(C)cc(C)n4)ccc2-3)n1` [SG11] the value was 17.2 ± 6.1%.
As for `CN(CC(=O)Nc1ccc2c(c1)C(=O)c1cc(NC(=O)CN(C)c3ccccc3)ccc1-2)c1ccccc1` [SG12, N,N′‐(9‐oxo‐9H‐fluorene‐2,7‐diyl)bis{2‐[methyl(phenyl)amino]acetamide}], the inhibition at 50 µM in assay [6] stood at 74.7%; in assay [7] it was 70.1%. The inhibition at 100 µM in assay [3] (setting [8]) was 85.5 ± 5.68%; in assay [4], 88.4 ± 4.45%; in assay [5], 95.84 ± 0.52%.
Regarding `Cc1ccc(C(=O)Nc2ccc(S(=O)(=O)O)c3cc(S(=O)(=O)O)cc(S(=O)(=O)O)c23)cc1NC(=O)c1cccc(NC(=O)Nc2cccc(C(=O)Nc3cc(C(=O)Nc4ccc(S(=O)(=O)O)c5cc(S(=O)(=O)O)cc(S(=O)(=O)O)c45)ccc3C)c2)c1` [Suramin], the inhibition at 100 µM in assay [3] (read-out: % inhibition) turned out to be 98.52 ± 0.45%. Also, the inhibition in assay [3] (setting [8]) amounted to 78.92 ± 0.67%.

The values above are taken from PMC11610652 (Archiv Der Pharmazie, 2024).
